Experimental data: article PMC4105567, “Aurora Kinases as Druggable Targets in Pediatric Leukemia: Heterogeneity in Target Modulation Activities and Cytotoxicity by Diverse Novel Therapeutic Agents” (PLoS ONE, 2014)

Experiments:
SEM B-ALL cell line = test: Cytotoxicity assay, SEM; assay type: cell-based; conditions: Homo sapiens, 96 h, four days in culture, Alamar blue assay or automated microscopy, ± SD, three experiments
Protocol: Cell lines were cultured in Opti-MEM medium (Gibco, Life Technologies Corporation, Burlington, Ontario) supplemented with 10% heat inactivated fetal bovine serum (FBS) (Gibco), 100 units/ml penicillin and 100 units/ml streptomycin (Gibco) and 0.05 mM 2-mercaptoethanol (Sigma-Aldrich, Oakville, Ontario) in T25 flasks (Nalge Nunc, Rochester, New York) or T75 flasks (Corning Incorporated, Corning, New York). All cell cultures were maintained at 37°C in a humidified incubator with 5% CO2.
For cytotoxicity profiling of Aurora kinase inhibitors against leukemia cell lines, inhibitors or vehicle control (DMSO, Sigma-Aldrich) were diluted in 100 µl of Opti-MEM per well in 96 well plates (Grenier Bio-One, Monroe, North Carolina) in triplicate at final concentrations ranging from 1×10^−6 to 10 µM. 1×10^4 cells per well were seeded and plates were incubated for 4 days. Following incubation for 4 days, cell survival was quantified by Alamar blue assay (Invitrogen) or automated inverted microscopy using the Celigo Cell Cytometer (Cyntellect, San Diego, California). […] During this period of incubation, the absorbance at 570–620 nm was measured (Opsys MR Plate Reader, Dynex Technologies, Chantilly, Virginia) at various time points, depending on the cell line or sample. Percent survival was calculated by comparing the absorbance ratio of the test well to the control well multiplied by 100%, as indicated in the following formula: […]
For automated inverted microscopy, the number of cells in each well was determined using the direct cell counting application as described previously. Briefly, following adjustment of image acquisition settings for bright-field imaging, the wells containing cells and appropriate dilutions of inhibitors were individually scanned. Based on these images, analysis parameters, including intensity threshold and cell diameter, were modified for optimal inclusion of viable cells in treated and control wells. These parameters were applied for subsequent replicates involving the same leukemia cell line or sample. The percent survival was then calculated as a ratio of the number of cells in treated wells to the number of cells in control wells multiplied by 100%. Given that Aurora kinase inhibitors interfere with cytokinesis, cells that are committed to death may still contain enlarging but intact cytoplasmic content before the eventual loss of cytoplasmic membrane integrity. The accuracy of Alamar blue assay may be, in theory, affected by the timing of these events.

[1] = test system: cleavage of PARP and caspase 7; test: Western blot of apoptotic markers in leukemia cell lines; assay type: cell-based, human; conditions: 2, 4, 6, 12 and 24 hours, C1, SEM, KOPN8, TIB-202
Protocol: (§1) Following desired experimental conditions, cells were harvested and centrifuged at 1200 rpm at 4°C for 5 minutes. After removal of supernatant, cells were washed in cold PBS. Following an additional centrifugation step, supernatant was removed and the pellet was re-suspended in radioimmunoprecipitation assay (RIPA) buffer (50 mM Tris-HCl (pH 8), 150 mM NaCl, 1% NP-40, 0.5% sodium deoxycholate; 0.1% sodium dodecyl sulphate (SDS)) supplemented with 1% phosphatase inhibitor (Sigma-Aldrich), 1% protease inhibitor (Sigma-Aldrich) and 1% sodium orthovanadate (Alfa Aesar, Ward Hill, Massachusetts). Samples were transferred to Eppendorf tubes, left on ice for 10 minutes, vortexed and then centrifuged at 14 000 rpm for 10 minutes.
To begin, the protein content of the lysates was measured using the Bicinchoninic Acid (BCA) Protein Assay Kit (Pierce, Rockford, Illinois), which included a protein standard curve generated with bovine serum albumin. Appropriate volumes of samples and loading buffer (50 mM Tris-HCl (pH 6.8), 2% SDS, 10% glycerol, 1% β-mercaptoethanol, 12.5 mM EDTA, 0.02% bromophenol blue) were mixed, ensuring that equal amounts of protein were loaded (30 µg of protein per well). Samples were then resolved on SDS-PAGE using various percentages of acrylamide gels (8%–12%), depending on the proteins of interest. SDS-PAGE was run in SDS running buffer (25 mM Tris, 192 mM glycine, 0.1% SDS) and then transferred to nitrocellulose membranes in transfer buffer (48 mM Tris, 39 mM glycine, 20% (v/v) methanol) at 100 volts for 2 hours at 4°C. Immunoblots were then blocked in 5% skim milk in tris-buffered saline with 0.1% Tween-20 (TBS-T; 50 mM Tris-HCl, pH 7.5, 150 mM NaCl, 0.1% (v/v) Tween-20 (Sigma-Aldrich)) for 1 to 2 hours. Immunoblots were then incubated with selected primary antibodies diluted in TBS-T with 0.1% gelatin (Bio-Rad, Mississauga, Ontario) and 0.05% sodium azide (Sigma-Aldrich) overnight. […]

phospho-Aurora-A/B/C = test: Western blot of Aurora kinase phosphorylation in leukemia cell lines; assay type: cell-based, human
Protocol: as §1
To begin, the protein content of the lysates was measured using the Bicinchoninic Acid (BCA) Protein Assay Kit (Pierce, Rockford, Illinois), which included a protein standard curve generated with bovine serum albumin. Appropriate volumes of samples and loading buffer (50 mM Tris-HCl (pH 6.8), 2% SDS, 10% glycerol, 1% β-mercaptoethanol, 12.5 mM EDTA, 0.02% bromophenol blue) were mixed, ensuring that equal amounts of protein were loaded (30 µg of protein per well). Samples were then resolved on SDS-PAGE using various percentages of acrylamide gels (8%–12%), depending on the proteins of interest. SDS-PAGE was run in SDS running buffer (25 mM Tris, 192 mM glycine, 0.1% SDS) and then transferred to nitrocellulose membranes in transfer buffer (48 mM Tris, 39 mM glycine, 20% (v/v) methanol) at 100 volts for 2 hours at 4°C. Immunoblots were then blocked in 5% skim milk in tris-buffered saline with 0.1% Tween-20 (TBS-T; 50 mM Tris-HCl, pH 7.5, 150 mM NaCl, 0.1% (v/v) Tween-20 (Sigma-Aldrich)) for 1 to 2 hours. Immunoblots were then incubated with selected primary antibodies diluted in TBS-T with 0.1% gelatin (Bio-Rad, Mississauga, Ontario) and 0.05% sodium azide (Sigma-Aldrich) overnight. Primary antibodies included: Aurora-A (Cell Signalling, Danvers, Massachusetts; 1∶1000), Aurora-B (Cell Signalling, 1∶1000), phospho-Aurora-A/B/C (Cell Signalling, 1∶1000), caspase 7 (Cell Signalling, 1∶1000), PARP (Cell Signalling, 1∶2000) and β-Actin (Sigma-Aldrich, 1∶10000). Following washes with TBT-T 4 times for 8 to 10 minutes, immunoblots were incubated with appropriate secondary antibodies conjugated to horseradish peroxidise (Sigma-Aldrich) diluted in TBS-T plus 5% skim milk at a ratio of 1∶5000 for 2 hours at room temperature. After an additional round of washes in TBS-T, immunoblots were exposed to combined enhanced chemiluminescence (ECL) reagents (Reagent 1: 100 mM Tris-HCl (pH 8.5), 5.4 mM hydrogen peroxide; Reagent 2: 100 mM Tris-HCl (pH 8.5), 2.5 mM luminol, 0.4 mM p-coumaric acid) for 1 minute and developed by exposure to X-ray film (Christie InnoMed, Montreal, Quebec).
Leukemia cells were plated in a 6 well plate (BD Biosciences) at a concentration of 1×10^6 cells per well in a volume of 500 µl of Opti-MEM supplemented with FBS and antibiotics. Next, Silencer Select Negative Control Number 1 siRNA (Invitrogen), Aurora kinase A siRNA (s196, Invitrogen) and Aurora kinase B siRNA (s17611, Invitrogen) were diluted in individual tubes (BD Biosciences) to a final concentration of 30 nM in 500 µl Opti-MEM without supplements. Following, HiPerfect Transfection Reagent (Qiagen, Toronto, Ontario) was added to the diluted siRNA at a ratio of 3∶100 and the samples were left at room temperature for 10 minutes to allow for the formation of transfection complexes. The transfection complexes were then added to the cells at a volume of 500 µl per well and the plates were placed in the incubator for 6 hours. After incubation, 1.4 ml of Opti-MEM plus supplements were added to each well, for a total volume 2.4 ml per well. The cells were returned to the incubator for an additional 48 or 72 hours and then processed for immunoblotting.

Aurora-A = test system: Aurora-A; parameters: method as in earlier work; conditions: literature values; ref [10],[22],[27],[40],[44]–[64] as listed per inhibitor in Table 1; read-out: Targets (IC50 Value): Aurora-A; cited from earlier work

| Compound | IC50 (SEM B-ALL cell line) [nM] | cleavage of caspase 7, time course ([1]; 1 µM) | phosphorylation of Aurora kinases, inhibitor alone, TIB-202 (phospho-Aurora-A/B/C; 1 µM for 12 h, TIB-202, Lanes 3 and 6 of Figure 8) | phosphorylation of Aurora-A, time course, C1 (phospho-Aurora-A/B/C; 1 µM, 2, 4, 6, 12 and 24 hours, C1) | phosphorylation of Aurora-B and Aurora-C, time course (phospho-Aurora-A/B/C; 1 µM, 2, 4, 6, 12 and 24 hours, C1, SEM, KOPN8, TIB-202) | phosphorylation of Aurora-A, time course, SEM, KOPN8, TIB-202 (phospho-Aurora-A/B/C; 1 µM, 2, 4, 6, 12 and 24 hours, SEM, KOPN8, TIB-202) | phosphorylation of Aurora kinases, inhibitor after Aurora-B siRNA (phospho-Aurora-A/B/C; Aurora-B siRNA 60 hours, then 1 µM for 12 h, SEM and TIB-202, Lane 5) | IC50 (Aurora-A) [nM] | cleavage of PARP, time course ([1]; 0.1 µM) | cleavage of caspase 7, time course ([1]; 0.1 µM) | phosphorylation of Aurora-B, inhibitor alone (phospho-Aurora-A/B/C; 0.1 µM for 12 hours, SEM and TIB-202, Lanes 3 and 6 of Figure 7) | phosphorylation of Aurora-A, time course (phospho-Aurora-A/B/C; 0.1 µM, 2, 4, 6, 12 and 24 hours, C1, SEM, KOPN8, TIB-202) | phosphorylation of Aurora-B and Aurora-C, time course, C1 and TIB-202 (phospho-Aurora-A/B/C; 0.1 µM, 2, 4, 6, 12 and 24 hours, C1 and TIB-202) | phosphorylation of Aurora-B, time course, SEM and KOPN8 (phospho-Aurora-A/B/C; 0.1 µM, 2, 4, 6, 12 and 24 hours, SEM and KOPN8) | phosphorylation of Aurora-B and Aurora-C, inhibitor after Aurora-A siRNA (phospho-Aurora-A/B/C; Aurora-A siRNA 60 hours, then 0.1 µM for 12 hours, SEM and TIB-202, Lane 5) |
| --- | --- | --- | --- | --- | --- | --- | --- | --- | --- | --- | --- | --- | --- | --- | --- |
| O=C(Nc1c[nH]nc1-c1nc2ccc(CN3CCOCC3)cc2[nH]1)NC1CC1 [AT9283] | 40 ± 20 | – | – | – | – | – | – | – | – | – | – | – | – | – | – |
| CCN1CCN(C(=O)Cc2ccc(Nc3ncc(F)c(Nc4ccc(C(=O)Nc5ccccc5Cl)cc4)n3)cc2)CC1 [Aurora A Inhibitor I] | – | cleavage of caspase 7 beginning at 4 hours for TIB-202 and at 12 hours for the remaining cell lines | promoted dephosphorylation of Aurora-A and increased phosphorylation of Aurora-B and Aurora-C | slight increase in phosphorylation of Aurora-A at 12 and 24 hours | gradual increase in phosphorylation of Aurora-B and Aurora-C compared to vehicle control starting at 2 hours for SEM and KOPN8, 4 hours for TIB-202 and 6 hours for C1 | initial decrease, followed by a subsequent increase in phosphorylation of Aurora-A was apparent, starting at 6 hours for SEM and at 4 hours for KOPN8 and TIB-202 | decrease in phosphorylation of all three isoforms compared to treatment with Aurora A Inhibitor I alone or Aurora-B siRNA alone | 3 | – | – | – | – | – | – | – |
| CCS(=O)(=O)Nc1ccc2c(c1)/C(=C(/Nc1ccc(CN3CCCCC3)cc1)c1ccccc1)C(=O)N2 [Hesperadin] | 1 ± 0.5 | – | – | – | – | – | – | – | cleavage of PARP in all four cell lines starting at 12 hours | cleavage of caspase 7 beginning at 4 hours for C1 and at 12 hours for the remaining cell lines | promoted dephosphorylation of Aurora-B | remained phosphorylated in all of the cell lines throughout the duration of treatment, with a slight increase in activity at 12 and 24 hours | Dephosphorylation of Aurora-B and Aurora-C was initiated at 2 hours in C1 and TIB-202 and maintained for the duration of the treatment | dephosphorylation of Aurora-B was initiated at 2 hours in SEM and KOPN8 and maintained until 24 hours | decrease in phosphorylation of Aurora-B and Aurora-C compared to silencing of Aurora-A alone |
